Assay results published in patent publication US20050175719A1, “Procyanidins for treatment and prevention of enzymatic irritation to the skin” (priority 2004, published 2005).

Test system: trypsin
Experiment: Inhibition of trypsin-induced cleavage of fluorescent BODIPY FL casein (EnzChek protease assay kit)
Format: biochemical
Text: The procedure of Example 1 was independently repeated using the procyanidin-containing grape seed extract and STI, respectively, at 0.1% concentration. In addition, the procedure of Example 1 was repeated on the five individual monomer units typically found in OPC, at up to three different concentration levels.

[1] = Table 4, concentration (w/w) 0.1 %
[2] = Table 4, concentration (w/w) 1 %
[3] = Table 4, concentration (w/w) 2.5 %

Compound | % trypsin inhibition [1] | % trypsin inhibition [2] | % trypsin inhibition [3] | trypsin inhibition activity (in words) (at concentrations up to 0.1%) | % trypsin inhibition (concentration 0.001 % (w/w)) | % trypsin inhibition (concentration 0.01 % (w/w)) | % trypsin inhibition (concentration 0.05 % (w/w))
Oc1cc(O)c2c(c1)OC(c1ccc(O)c(O)c1)C(O)C2 (racemic) [Catechin (+/−)] | 4.6% | 61% | 76% | – | – | – | –
O=C1O[C@H]([C@@H](O)CO)C(O)=C1O [Vit C, Vitamin C] | – | – | – | no trypsin inhibition activity | −2% | 1% | −12%
Oc1cc(O)c2c(c1)OC(c1ccc(O)c(O)c1)C(O)C2 (stereo not drawn) [Catechin (+)] | 11% | 72% | 89% | – | – | – | –
Catechin (−) | 18% | 70% | 92% | – | – | – | –
Oc1cc(O)c2c(c1)O[C@@H](c1ccc(O)c(O)c1)[C@@H](O)C2 [Epicatechin (+)] | 22% | – | – | – | – | – | –
Oc1cc(O)c2c(c1)O[C@H](c1ccc(O)c(O)c1)[C@H](O)C2 [Epicatechin (−)] | – | 71% | 90% | – | – | – | –
